Here are results for one compound from US20260224588A1, “BENZODIAZEPINONE-DERIVED INHIBITORS OF EGFR AND HER2” (The Research Foundation for the State University of New York, priority 2023, published 2026).

One may read the IC50 as the concentration at which inhibition is half-maximal.

For one assay, the target named is T1, TTK (Homo sapiens, UniProt P33981).
T1 construct: purchased Eurofins DiscoverX Corporation
The assay is described as follows: KINOMEscan. It is filed as binding. To be noted: 1 μM of compound 4; read-out: POC.

In a further assay the target is LCK (Homo sapiens, UniProt P06239). In words: KINOMEscan. It is filed as binding. Particulars: 1 μM of compound 4; read-out: POC.
LCK, sequence (P06239 whole entry): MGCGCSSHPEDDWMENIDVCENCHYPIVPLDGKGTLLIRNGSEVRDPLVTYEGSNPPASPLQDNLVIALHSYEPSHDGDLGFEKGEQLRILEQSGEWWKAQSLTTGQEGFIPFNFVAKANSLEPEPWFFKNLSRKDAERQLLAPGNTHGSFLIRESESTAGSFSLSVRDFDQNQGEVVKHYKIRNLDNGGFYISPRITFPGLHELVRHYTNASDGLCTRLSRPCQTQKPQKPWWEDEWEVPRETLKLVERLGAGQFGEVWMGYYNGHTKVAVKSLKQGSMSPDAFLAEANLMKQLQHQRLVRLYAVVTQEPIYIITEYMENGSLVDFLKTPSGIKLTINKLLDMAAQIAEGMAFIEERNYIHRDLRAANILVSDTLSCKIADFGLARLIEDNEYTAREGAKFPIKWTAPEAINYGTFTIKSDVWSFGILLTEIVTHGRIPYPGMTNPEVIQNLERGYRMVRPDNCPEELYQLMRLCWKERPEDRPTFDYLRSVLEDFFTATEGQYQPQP
The target in the next assay is PIK3CA(Q546K) (Homo sapiens, UniProt P42336, Q546K). The assay is described as follows: KINOMEscan. Particulars: 1 μM of compound 4; read-out: POC. It is filed as binding.
For another assay, the target named is BRK (Homo sapiens, UniProt Q13882). The assay is described as follows: KINOMEscan. To be noted: 1 μM of compound 4; read-out: POC. It is filed as binding.
BRK, sequence (Q13882 whole entry): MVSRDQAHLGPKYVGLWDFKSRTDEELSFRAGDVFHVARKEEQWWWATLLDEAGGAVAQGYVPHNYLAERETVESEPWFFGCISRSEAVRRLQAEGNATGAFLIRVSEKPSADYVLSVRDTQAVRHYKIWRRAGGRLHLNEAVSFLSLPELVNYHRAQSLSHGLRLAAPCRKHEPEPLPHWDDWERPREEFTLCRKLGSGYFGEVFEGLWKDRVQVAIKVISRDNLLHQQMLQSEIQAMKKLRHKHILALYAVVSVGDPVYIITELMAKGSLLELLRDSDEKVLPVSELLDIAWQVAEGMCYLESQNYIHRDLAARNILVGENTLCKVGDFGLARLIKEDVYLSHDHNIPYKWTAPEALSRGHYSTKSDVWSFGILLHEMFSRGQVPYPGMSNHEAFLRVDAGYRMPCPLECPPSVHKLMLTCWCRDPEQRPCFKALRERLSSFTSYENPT
Another assay addresses T2, EPHB6 (Homo sapiens, UniProt O15197).
T2 construct: purchased Eurofins DiscoverX (KINOMEscan service)
In words: KINOMEscan. To be noted: 1 μM of compound 4; read-out: POC. It is filed as binding.

Another assay deals with LOK (Homo sapiens, UniProt O94804). The assay is described as follows: KINOMEscan. Particulars: 1 μM of compound 4; read-out: POC. It is filed as binding.
A further assay has as its target T3, ROS1 (Homo sapiens, UniProt P08922).
T3 construct: purchased Eurofins DiscoverX Corporation (KINOMEscan screening service)
In words: KINOMEscan. It is filed as binding. Particulars: 1 μM of compound 4; read-out: POC.

Assay [1] concerns the target T4, EGFR L858R/T790M/C797S kinase domain (Homo sapiens, UniProt P00533, C797S/L858R/T790M).
T4 construct: The EGFR kinase domain (residues 696-1022) was cloned into pTriEx; 6xHis (N, cleaved yes); GST (N, cleaved yes); made in house; host or cells: SF9 insect cells (baculovirus)
In words: HTRF-based activity assay. It is filed as biochemical. To be noted: 100 μM ATP, enzyme 0.02 nM, read-out: Biochemical EGFR IC50, LRTMCS. The protocol:
Protein expression and purification. The EGFR kinase domain (residues 696-1022) was cloned into pTriEx with an N-terminal 6×His-glutathione S-transferase (GST) fusion tag followed by a TEV protease cleavage site. EGFR WT, L858R, L858R/T790M, L858R/T790M/C797S was expressed after baculoviral infection in SF9 cells and EGFR(T790M/V948R) was expressed in SF21 cells. Briefly, cells were pelleted and resuspended in lysis buffer composed of 50 mM Tris pH 8.0, 500 mM NaCl, 1 mM tris(2-carboxyethyl)phosphine (TCEP), and 5% glycerol. Cells were lysed via sonication prior to ultracentrifugation at >200,000 g for 1 h. Imidazole pH 8.0 was added to the supernatant for a final concentration of 40 mM and flowed through a column containing Ni-NTA agarose beads. The resin was washed with lysis buffer supplemented with 40 mM imidazole and eluted with lysis buffer containing 200 mM imidazole. Eluted EGFR kinase domain was dialyzed overnight in the presence of 5% (w/w) TEV protease against dialysis buffer containing 50 mM Tris pH 8.0, 500 mM NaCl, 1 mM TCEP, and 5% glycerol. The cleaved protein was passed through Ni-NTA resin to remove the 6×His-GST fusion protein and TEV prior to size exclusion chromatography on a prep-grade Superdex S200 column in 50 mM Tris pH 8.0, 500 mM NaCl, 1 mM TCEP, and 5% glycerol.
HTRF Assays. Biochemical assays for EGFR domains were carried out using a homogeneous time-resolved fluorescence (HTRF) KinEASE-TK (Cisbio) assay, as described previously. Assays were optimized for ATP concentration of 100 μM with enzyme concentrations WT EGFR 10 nM, L858R 0.1 nM, L858R/T790M at 0.02 nM and L858R/T790M/C797S at 0.02 nM. Inhibitor compounds in DMSO were dispensed directly in 384-well plates with the D300 digital dispenser (Hewlett Packard) followed immediately by the addition of aqueous buffered solutions using the Multidrop Combi Reagent Dispenser (Thermo Fischer). […] The curves were fitted using a non-linear regression model with a sigmoidal dose response.
On the technique in general: TR-FRET usually uses a lanthanide donor and a delayed reading to cut background.

A further assay deals with T5, RIPK2 (Homo sapiens, UniProt O43353).
T5 construct: purchased Eurofins DiscoverX Corporation (KINOMEscan screening service)
In words: KINOMEscan. It is filed as binding. To be noted: 1 μM of compound 4; read-out: POC.

The next assay has as its target T6, GRK2 (Homo sapiens, UniProt P25098).
T6 construct: purchased Eurofins DiscoverX Corporation
In words: KINOMEscan. It is filed as binding. To be noted: 1 μM of compound 4; read-out: POC.

In a further assay the target is PIP5K2B (Homo sapiens, UniProt P78356). The assay is described as follows: KINOMEscan. Particulars: 1 μM of compound 4; read-out: POC. It is filed as binding.
PIP5K2B, sequence (P78356 whole entry): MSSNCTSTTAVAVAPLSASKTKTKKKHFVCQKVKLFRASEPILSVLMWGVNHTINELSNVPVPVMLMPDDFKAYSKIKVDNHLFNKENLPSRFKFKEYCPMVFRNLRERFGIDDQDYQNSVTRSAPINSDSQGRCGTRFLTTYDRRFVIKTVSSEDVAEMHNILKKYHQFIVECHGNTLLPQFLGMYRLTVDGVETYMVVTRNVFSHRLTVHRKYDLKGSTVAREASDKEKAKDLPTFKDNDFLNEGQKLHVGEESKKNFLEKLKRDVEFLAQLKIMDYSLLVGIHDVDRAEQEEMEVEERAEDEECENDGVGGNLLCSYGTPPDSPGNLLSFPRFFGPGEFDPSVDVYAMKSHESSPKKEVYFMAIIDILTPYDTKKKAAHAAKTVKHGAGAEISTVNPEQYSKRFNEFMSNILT
The target of another assay is CSF1R-autoinhibited (Homo sapiens, UniProt P07333). The assay is described as follows: KINOMEscan. It is filed as binding. Particulars: 1 μM of compound 4; read-out: POC.
CSF1R-autoinhibited, sequence (P07333 539-972 limits assumed): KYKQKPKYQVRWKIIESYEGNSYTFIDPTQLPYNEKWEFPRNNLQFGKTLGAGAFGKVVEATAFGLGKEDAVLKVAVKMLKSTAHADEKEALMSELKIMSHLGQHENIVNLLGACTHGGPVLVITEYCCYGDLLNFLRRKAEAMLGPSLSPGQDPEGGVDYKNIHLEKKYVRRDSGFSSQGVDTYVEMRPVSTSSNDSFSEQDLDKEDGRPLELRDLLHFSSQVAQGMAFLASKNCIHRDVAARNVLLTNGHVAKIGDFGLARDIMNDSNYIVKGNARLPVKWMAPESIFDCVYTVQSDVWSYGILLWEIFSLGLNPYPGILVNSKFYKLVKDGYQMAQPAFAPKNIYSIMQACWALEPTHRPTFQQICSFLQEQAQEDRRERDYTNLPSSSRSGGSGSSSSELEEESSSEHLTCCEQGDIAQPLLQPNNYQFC
In the next assay the target is CSK (Homo sapiens, UniProt P41240). In words: KINOMEscan. It is filed as binding. Particulars: 1 μM of compound 4; read-out: POC.
CSK, sequence (P41240 whole entry): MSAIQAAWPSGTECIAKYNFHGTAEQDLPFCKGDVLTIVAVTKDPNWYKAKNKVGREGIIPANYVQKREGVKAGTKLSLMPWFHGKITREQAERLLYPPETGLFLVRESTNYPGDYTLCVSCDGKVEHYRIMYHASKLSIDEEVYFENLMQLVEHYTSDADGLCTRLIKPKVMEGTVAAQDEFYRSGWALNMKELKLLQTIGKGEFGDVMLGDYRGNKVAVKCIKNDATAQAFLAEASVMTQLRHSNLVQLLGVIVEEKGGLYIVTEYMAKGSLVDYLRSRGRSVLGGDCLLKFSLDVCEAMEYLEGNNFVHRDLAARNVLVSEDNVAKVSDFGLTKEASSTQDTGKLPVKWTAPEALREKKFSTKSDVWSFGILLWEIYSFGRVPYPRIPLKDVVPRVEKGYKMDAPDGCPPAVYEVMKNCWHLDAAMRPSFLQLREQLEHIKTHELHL
In assay [2] the target is T7, RPS6KA5(Kin.Dom.2-C-terminal) (Homo sapiens, UniProt O75582).
T7 construct: RPS6KA5(Kin.Dom.2-C-terminal); purchased Eurofins DiscoverX Corporation (KINOMEscan screening service)
In words: KINOMEscan. It is filed as binding. To be noted: 1 μM of compound 4; read-out: POC.

The target of the next assay is AKT1 (Homo sapiens, UniProt P31749). In words: KINOMEscan. It is filed as binding. Particulars: 1 μM of compound 4; read-out: POC.
Assay [3] deals with L858R EGFR mutant Ba/F3 cells. The assay is described as follows: Ba/F3 cellular antiproliferative experiments. It is filed as cell-based. To be noted: Mus musculus, BaF3, 72 h, Ba/F3, 72 hours; read-out: Anti-proliferative EC50 ± SE, LR. The protocol: (§1) Ba/F3 Cellular Antiproliferative Experiments. The parental Ba/F3 cells was a generous gift from the laboratory of Dr. David Weinstock (in 2014), Dr. Pasi Jänne (2020) and was used to generate the wildtype EGFR, wildtype HER2, L858R, and L858R/T790M EGFR mutant Ba/F3 cells. These cells were previously characterized as described. All Ba/F3 cells were cultured in RPMI1640 media with 10% fetal bovine serum and 1% penicillin and streptomycin. All cell lines were tested negative for Mycoplasma using Mycoplasma Plus PCR Primer Set (Agilent) and were passaged and/or used for no longer than 4 weeks for all experiments. Assay reagents were purchased from MilliporeSigma (Cat #R7017-5G). Ba/F3 cells were plated and treated with increasing concentrations of inhibitors in triplicate for 72 hours. Compounds were dispensed using the Tecan D300e Digital Dispenser. Cellular growth or the inhibition of growth was assessed by resazurin viability assay. All experiments were repeated at least 3 times and values were reported as an average of n=3 with standard deviation.

In assay [4] the test system is wildtype HER2 Ba/F3 cells. In words: Ba/F3 cellular antiproliferative experiments. It is filed as cell-based. To be noted: Mus musculus, BaF3; Ba/F3, 72 hours; read-out: Anti-proliferative EC50 ± SE, HER2. As for the experimental part:
as §1

For assay [5], the system named is L858R/T790M EGFR mutant Ba/F3 cells. The assay is described as follows: Ba/F3 cellular antiproliferative experiments. It is filed as cell-based. Particulars: Ba/F3, 72 hours, read-out: Anti-proliferative EC50 ± SE, LR/TM. The protocol: as §1

The structures appear in SMILES notation. Where two headings read alike, the source gives them in different places.

T3 sequence (P08922 28-2347): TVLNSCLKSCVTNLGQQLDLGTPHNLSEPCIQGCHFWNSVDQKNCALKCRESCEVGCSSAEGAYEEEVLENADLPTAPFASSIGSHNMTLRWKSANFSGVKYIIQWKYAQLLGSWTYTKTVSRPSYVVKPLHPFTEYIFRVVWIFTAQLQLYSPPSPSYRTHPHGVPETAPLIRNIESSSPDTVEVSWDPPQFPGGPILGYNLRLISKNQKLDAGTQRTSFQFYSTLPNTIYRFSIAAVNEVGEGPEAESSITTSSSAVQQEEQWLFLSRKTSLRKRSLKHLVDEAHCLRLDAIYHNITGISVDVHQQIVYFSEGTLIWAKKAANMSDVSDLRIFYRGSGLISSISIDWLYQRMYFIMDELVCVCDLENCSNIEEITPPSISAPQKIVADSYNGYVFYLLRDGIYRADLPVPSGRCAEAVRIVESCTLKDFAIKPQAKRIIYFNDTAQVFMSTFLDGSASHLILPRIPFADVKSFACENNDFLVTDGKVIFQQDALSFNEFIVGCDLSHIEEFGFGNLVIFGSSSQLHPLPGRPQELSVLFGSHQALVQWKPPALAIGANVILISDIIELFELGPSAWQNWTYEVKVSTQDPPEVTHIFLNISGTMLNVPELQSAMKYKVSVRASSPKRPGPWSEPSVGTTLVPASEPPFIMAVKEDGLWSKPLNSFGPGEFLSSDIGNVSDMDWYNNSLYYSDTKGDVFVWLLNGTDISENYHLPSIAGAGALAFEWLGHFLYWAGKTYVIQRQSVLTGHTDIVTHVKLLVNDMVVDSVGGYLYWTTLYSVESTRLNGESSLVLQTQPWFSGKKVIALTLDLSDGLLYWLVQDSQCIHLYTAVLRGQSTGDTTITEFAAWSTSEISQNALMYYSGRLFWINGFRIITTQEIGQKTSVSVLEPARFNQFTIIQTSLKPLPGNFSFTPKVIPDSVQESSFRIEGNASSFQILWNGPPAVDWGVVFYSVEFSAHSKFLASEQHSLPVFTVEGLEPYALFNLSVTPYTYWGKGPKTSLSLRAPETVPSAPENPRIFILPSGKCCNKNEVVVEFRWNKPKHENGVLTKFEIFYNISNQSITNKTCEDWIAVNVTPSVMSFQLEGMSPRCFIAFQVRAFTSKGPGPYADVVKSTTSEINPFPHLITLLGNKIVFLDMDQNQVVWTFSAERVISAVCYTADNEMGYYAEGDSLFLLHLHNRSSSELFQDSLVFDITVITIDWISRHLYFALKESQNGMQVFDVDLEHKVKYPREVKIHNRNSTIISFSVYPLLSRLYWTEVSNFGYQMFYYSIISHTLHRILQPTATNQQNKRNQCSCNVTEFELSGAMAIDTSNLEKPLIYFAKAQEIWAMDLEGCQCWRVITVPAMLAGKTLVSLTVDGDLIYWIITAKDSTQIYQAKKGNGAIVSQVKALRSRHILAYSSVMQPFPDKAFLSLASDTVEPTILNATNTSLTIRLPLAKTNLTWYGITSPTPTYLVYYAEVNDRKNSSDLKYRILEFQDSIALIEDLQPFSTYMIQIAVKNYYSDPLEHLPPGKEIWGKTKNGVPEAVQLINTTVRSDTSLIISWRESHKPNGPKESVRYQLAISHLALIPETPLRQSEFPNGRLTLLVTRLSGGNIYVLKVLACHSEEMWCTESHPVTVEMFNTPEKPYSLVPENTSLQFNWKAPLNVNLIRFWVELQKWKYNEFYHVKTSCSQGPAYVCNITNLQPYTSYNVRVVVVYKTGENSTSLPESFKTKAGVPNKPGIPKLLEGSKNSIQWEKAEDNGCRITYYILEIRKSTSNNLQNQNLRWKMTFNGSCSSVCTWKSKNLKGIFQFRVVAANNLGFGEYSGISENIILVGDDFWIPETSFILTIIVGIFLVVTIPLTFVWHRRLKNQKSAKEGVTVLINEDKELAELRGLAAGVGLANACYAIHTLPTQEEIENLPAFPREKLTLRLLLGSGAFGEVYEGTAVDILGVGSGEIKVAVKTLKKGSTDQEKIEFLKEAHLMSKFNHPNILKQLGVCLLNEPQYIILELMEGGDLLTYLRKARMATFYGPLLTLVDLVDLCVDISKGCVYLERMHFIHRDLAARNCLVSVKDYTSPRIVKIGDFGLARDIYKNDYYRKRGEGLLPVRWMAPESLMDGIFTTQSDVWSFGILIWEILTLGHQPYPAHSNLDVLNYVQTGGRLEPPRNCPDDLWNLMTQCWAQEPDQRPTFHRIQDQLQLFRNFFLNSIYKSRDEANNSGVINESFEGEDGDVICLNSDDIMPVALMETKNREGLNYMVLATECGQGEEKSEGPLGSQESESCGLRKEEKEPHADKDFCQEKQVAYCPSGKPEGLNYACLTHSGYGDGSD
T4 sequence (P00533 696-1022 T790M/C797S/L858R): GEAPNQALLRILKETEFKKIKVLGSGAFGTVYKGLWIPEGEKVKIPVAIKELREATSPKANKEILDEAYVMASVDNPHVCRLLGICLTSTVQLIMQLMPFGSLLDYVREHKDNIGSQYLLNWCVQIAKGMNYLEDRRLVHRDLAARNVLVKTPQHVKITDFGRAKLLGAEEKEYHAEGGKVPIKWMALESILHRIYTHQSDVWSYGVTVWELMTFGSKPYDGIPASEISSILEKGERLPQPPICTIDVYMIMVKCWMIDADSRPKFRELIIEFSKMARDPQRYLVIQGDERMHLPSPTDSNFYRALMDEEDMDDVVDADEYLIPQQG

For the compound `C=CC(=O)Nc1ccc(OC)c(Nc2cc(-c3[nH]c(CC)nc3-c3cccc(NC(=O)c4cccc5c4NC(=O)c4ccccc4N5)c3)ccn2)c1` [Compound 4, N-(3-(5-(2-((5-Acrylamido-2-methoxyphenyl)amino)pyridin-4-yl)-2-ethyl-1H-imidazol-4-yl)phenyl)-11-oxo-10,11-dihydro-5H-dibenzo[b,e][1,4]diazepine-9-carboxamide], the remaining binding at 1 µM at TTK was 72%; at LCK, 7.7%; at PIK3CA(Q546K) it was 100%; on BRK, 96%; at EPHB6 it was 100%; at LOK it was 49%. The remaining binding at 1 µM came to 80% on ROS1; 62% at RIPK2; 100% on GRK2; 100% at PIP5K2B; 69% at CSF1R-autoinhibited; 14% on CSK. For the same compound, the remaining binding at 1 µM in assay [2] stood at 100%; on AKT1, 89%. The IC50 in [1] is 1.8 ± 0.3 nM. Also, the EC50 was approximately 200 nM in assay [3]; 1930 ± 1010 nM in assay [4]; 770 ± 390 nM in assay [5]; approximately 750 nM in assay [5] (Mus musculus, BaF3, 72 h).
